Measurements published in paper PMC6151511, “Rational Design of Nucleoside–Bile Acid Conjugates Incorporating a Triazole Moiety for Anticancer Evaluation and SAR Exploration” (Molecules : A Journal of Synthetic Chemistry and Natural …, 2017).
Several values for one entry are separate records, joined by “and”; a condition that tells them apart may be missing. Identical values can stand only once. Like-named read-outs stand apart in the source and are kept apart here.

Experiments:
Type in all cases: cell-based
K562 leukemia cells = assay: MTT assay, cell growth inhibition of K562 leukemia cells; details: for cytotoxicity against K562 (in words): 10, 25 and 50 μM
Protocol: (§1) All conjugated compounds prepared via click chemistry and listed in Table 1 were evaluated in vitro for their cytotoxic activity against K562 leukemia cells and the colon cancer cell line HCT116. Normal human skin fibroblast cells were chosen as a control and cisplatin served as a reference compound. The cytotoxicity was evaluated using the MTT assay (details are reported in the Materials and Methods section). In all experiments the cell growth inhibition of K562 and HCT116 was determined for each compound at concentrations of 10, 25 and 50 μM after 72 h of treatment and up to 100 μM in the case of fibroblasts.
(§2) Cell growth inhibition assays were carried out using the leukemia cell line K562 and colon carcinoma HCT116. Cell lines were obtained from ATCC (Manassas, VA, USA) and maintained in RPMI 1640, supplemented with 10% fetal bovine serum (FBS), penicillin (100 Units mL^−1), streptomycin (100 μg mL^−1) and glutamine (2 mM) (complete medium); the pH of the medium was 7.2 and the incubation was performed at 37 °C in a 5% CO2 atmosphere. Adherent cells were routinely used at 70% of confluence and passaged every 3 days by treatment with 0.05% Trypsin-EDTA (Lonza, Walkersville, MD, USA). K562 cells were routinely fed every 3 days.
(§3) The antiproliferative activity of the compounds was tested using the 3-(4,5-dimethylthiozol-2-yl)2,5-diphenyltetrazolium bromide solution (MTT) assay. K562 and HCT116 were seeded in triplicate in 96-well trays respectively at the density of 5 × 10^3 and 10^4 in 50 μL of complete medium. Stock solutions (50 mM) of each compound were made in DMSO and diluted in complete medium to give final concentrations of 50, 25 and 10 μM. Untreated cells were placed in every plate as a negative control. The cells were exposed to the compounds, in 100 μL total volume, for 72 h.

HCT116 colon carcinoma = assay: MTT assay, cell growth inhibition of HCT116 colon carcinoma; details: for IC50: MTT, 72 h incubation, mean of three independent experiments ± SD, IC50 > 50 means inhibition <20% at 50 μM; for cytotoxicity against HCT116 (in words): 10, 25 and 50 μM, 72 h
Protocol: as §1, §2, §3

[1] = system: Normal human skin fibroblast cells; assay: MTT assay, cytotoxicity on normal fibroblasts (control); details: up to 100 μM; for IC50: MTT, 72 h incubation, mean of three independent experiments ± SD, IC50 > 100 means inhibition <10% at 100 μM, read-out: IC50 FIBRO
Protocol: as §1, §3

[2] = Homo sapiens, K562, 72 h, MTT, 72 h incubation, mean of three independent experiments ± SD, IC50 > 50 means inhibition <20% at 50 μM, read-out: IC50 K562
[3] = Homo sapiens, Skin fibroblast, 72 h
[4] = MTT, 72 h incubation, mean of three independent experiments ± SD, IC50 > 50 means inhibition <20% at 50 μM, read-out: IC50 K562

Structure (SMILES) | IC50 (K562 leukemia cells; [2]) [µM] | IC50 (HCT116 colon carcinoma; Homo sapiens, HCT-116, 72 h) [µM] | IC50 [1, 3] [µM] | also measured
C#CCCCCC#Cc1nc2c(N)ncnc2n1[C@@H]1O[C@H](CO)[C@@H](O)[C@H]1O [ALK-A, 8-(1,7-Octadynyl)-adenosine] | > 50 | > 50 | > 100 | 
COC(=O)CCC(C)C1CCC2C3C(O)CC4CC(n5cc(CCCCC#Cc6nc7c(N)ncnc7n6C6OC(CO)C(O)C6O)nn5)CCC4(C)C3CCC12C (centres unmarked) [A-UDC] |  |  |  | IC50 (K562 leukemia cells; [4]): > 50 µM; IC50 (HCT116 colon carcinoma): > 50 µM; IC50 [1]: > 100 µM
CC(CCC(=O)NCCS(=O)(=O)O)[C@H]1CCC2C3C(CC[C@@]21C)[C@@]1(C)CC[C@@H](n2cc(CCCCC#Cc4cn([C@H]5C[C@H](O)[C@@H](CO)O5)c(=O)[nH]c4=O)nn2)CC1C[C@@H]3O (some centres unmarked) [dU-TUDCA] |  | > 50 | > 100 | 
COC(=O)CCC(C)[C@H]1CCC2C3C(CC[C@@]21C)[C@@]1(C)CC[C@@H](n2cc(CCCCC#Cc4nc5c(=O)[nH]c(N)nc5n4[C@H]4C[C@H](O)[C@@H](CO)O4)nn2)CC1C[C@@H]3O (some centres unmarked) [dG-UDC] | > 50 | > 50 | > 100 | 
COC(=O)CC[C@@H](C)[C@H]1CC[C@H]2[C@@H]3[C@H](O)C[C@@H]4C[C@H](N=[N+]=[N-])CC[C@]4(C)[C@H]3CC[C@]12C [3α-N3-CDC, methyl 3α-azido-7α-hydroxy-5β-cholan-24-oate] | 23 ± 2 | 31 ± 2.3 | > 100 | cytotoxicity against K562 (in words) (K562 leukemia cells; 72 h): active; cytotoxicity against HCT116 (in words) (HCT116 colon carcinoma): active; cytotoxicity towards fibroblast cells (in words) ([1]; 72 h): not active
CC(CCn1cc(CCCCC#Cc2cn([C@H]3C[C@H](O)[C@@H](CO)O3)c(=O)[nH]c2=O)nn1)[C@H]1CCC2C3C(CC[C@@]21C)[C@@]1(C)CC[C@@H](O)CC1C[C@H]3O (some centres unmarked) [dU-nor-CDC] | 42.9 ± 1.9 | > 50 | > 100 | 
CC(CCn1cc(CCCCC#Cc2nc3c(N)ncnc3n2[C@H]2C[C@H](O)[C@@H](CO)O2)nn1)[C@H]1CCC2C3C(CC[C@@]21C)[C@@]1(C)CC[C@@H](O)CC1C[C@@H]3O (some centres unmarked) [dA-nor-UDC] | > 50 | 44.8 ± 3.5 | > 100 | IC50 (K562 leukemia cells; Homo sapiens, K562, 72 h, extrapolated beyond the highest tested concentration of 50 μM, 72 h, read-out: IC50 K562, extrapolated value): 87.1 µM
COC(=O)CCC(C)[C@H]1CCC2C3C(CC[C@@]21C)[C@@]1(C)CC[C@@H](n2cc(CCCCC#Cc4cn([C@H]5C[C@H](O)[C@@H](CO)O5)c(=O)[nH]c4=O)nn2)CC1C[C@@H]3O (some centres unmarked) [dU-UDC] | ≤ 25 | ≤ 25 | ~100 | IC50 (K562 leukemia cells; [4]): 21.5 ± 2 µM; IC50 (HCT116 colon carcinoma): 23.5 ± 1.6 µM; IC50 [1]: 91.5 ± 4.5 µM
CC(CCn1cc(CCCCC#Cc2nc3c(=O)[nH]c(N)nc3n2[C@H]2C[C@H](O)[C@@H](CO)O2)nn1)[C@H]1CCC2C3C(CC[C@@]21C)[C@@]1(C)CC[C@@H](O)CC1C[C@@H]3O (some centres unmarked) [dG-nor-UDC] | > 50 | > 50 | > 100 | 
N.N.[Cl][Pt][Cl] [CISPLATIN, cisplatin, reference compound] |  |  |  | IC50 (K562 leukemia cells; [4]): 5.4 ± 1 µM; IC50 (HCT116 colon carcinoma): 8.5 ± 1.2 µM; IC50 [1]: 23.6 ± 3.5 µM
CC(CCN=[N+]=[N-])[C@H]1CCC2C3C(CC[C@@]21C)[C@@]1(C)CC[C@@H](O)CC1C[C@H]3O (stereo partly drawn) [23-N3-nor-CDC, 3α,7α-Dihydroxy-5β-23-azido-24-norcholane] | 21 ± 1.2 | 25 ± 2 | 79 ± 3.1 | 
CC(CCn1cc(CCCCC#Cc2cn([C@H]3C[C@H](O)[C@@H](CO)O3)c(=O)[nH]c2=O)nn1)[C@H]1CCC2C3C(CC[C@@]21C)[C@@]1(C)CC[C@@H](O)CC1C[C@@H]3O (some centres unmarked) [dU-nor-UDC] | ≤ 25 | 43 ± 3.5 | > 100 | IC50 (K562 leukemia cells; [4]): 24.8 ± 1.5 µM
CC(CCn1cc(CCCCC#Cc2nc3c(=O)[nH]c(N)nc3n2[C@@H]2O[C@H](CO)[C@@H](O)[C@H]2O)nn1)[C@H]1CCC2C3C(CC[C@@]21C)[C@@]1(C)CC[C@@H](O)CC1C[C@@H]3O (some centres unmarked) [G-nor-UDC] | > 50 | > 50 | > 100 | 
CC(CCC(=O)NCCS(=O)(=O)O)[C@H]1CCC2C3C(CC[C@@]21C)[C@@]1(C)CC[C@@H](n2cc(CCCCC#Cc4nc5c(N)ncnc5n4[C@H]4C[C@H](O)[C@@H](CO)O4)nn2)CC1C[C@@H]3O (some centres unmarked) [dA-TUDCA] | > 50 | > 50 | > 100 | 
COC(=O)CCC(C)[C@H]1CCC2C3C(CC[C@@]21C)[C@@]1(C)CC[C@@H](n2cc(CCCCC#Cc4nc5c(=O)[nH]c(N)nc5n4[C@@H]4O[C@H](CO)[C@@H](O)[C@H]4O)nn2)CC1C[C@H]3O (some centres unmarked) [G-CDC] | > 50 | ≤ 25 | > 100 | IC50 (HCT116 colon carcinoma): 25.3 ± 3.8 µM
CC(CCn1cc(CCCCC#Cc2nc3c(N)ncnc3n2C2OC(CO)C(O)C2O)nn1)C1CCC2C3C(O)CC4CC(O)CCC4(C)C3CCC12C (centres unmarked) [A-nor-UDC] |  |  |  | IC50 (K562 leukemia cells; [4]): > 50 µM; IC50 (HCT116 colon carcinoma): > 50 µM; IC50 [1]: > 100 µM
COC(=O)CCC(C)[C@H]1CCC2C3C(CC[C@@]21C)[C@@]1(C)CC[C@@H](n2cc(CCCCC#Cc4nc5c(=O)[nH]c(N)nc5n4[C@@H]4O[C@H](CO)[C@@H](O)[C@H]4O)nn2)CC1C[C@@H]3O (some centres unmarked) [G-UDC] | > 50 | > 50 | > 100 | 
CC(CCn1cc(CCCCC#Cc2nc3c(N)ncnc3n2C2OC(CO)C(O)C2O)nn1)C1CCC2C3C(O)CC4CC(O)CCC4(C)C3CCC12C (centres unmarked) [A-nor-CDC] |  | 44.1 ± 2.5 | > 100 | IC50 (K562 leukemia cells; [4]): ≤ 25 µM and 23.6 µM
CC(CCC(=O)NCCS(=O)(=O)O)[C@H]1CCC2C3C(CC[C@@]21C)[C@@]1(C)CC[C@@H](n2cc(CCCCC#Cc4nc5c(=O)[nH]c(N)nc5n4[C@@H]4O[C@H](CO)[C@@H](O)[C@H]4O)nn2)CC1C[C@@H]3O (some centres unmarked) [G-TUDCA] | > 50 | > 50 | > 100 | 
C#CCCCCC#Cc1nc2c(=O)[nH]c(N)nc2n1[C@@H]1O[C@H](CO)[C@@H](O)[C@H]1O [ALK-G, 8-(1,7-Octadynyl)-guanosine] | > 50 | > 50 | > 100 | 
COC(=O)CCC(C)[C@H]1CCC2C3C(CC[C@@]21C)[C@@]1(C)CC[C@@H](n2cc(CCCCC#Cc4nc5c(=O)[nH]c(N)nc5n4[C@H]4C[C@H](O)[C@@H](CO)O4)nn2)CC1C[C@H]3O (some centres unmarked) [dG-CDC] | > 50 | > 50 | > 100 | 
COC(=O)CCC(C)C1CCC2C3C(O)CC4CC(n5cc(CCCCC#Cc6nc7c(N)ncnc7n6C6OC(CO)C(O)C6O)nn5)CCC4(C)C3CCC12C (centres unmarked) [A-CDC] | 43.5 ± 1.3 |  | > 100 | IC50 (HCT116 colon carcinoma): ≤ 25 µM and 23.1 µM
COC(=O)CC[C@@H](C)[C@H]1CC[C@H]2[C@@H]3[C@@H](O)C[C@@H]4C[C@H](N=[N+]=[N-])CC[C@]4(C)[C@H]3CC[C@]12C [3α-N3-UDC, methyl 3α-azido-7β-hydroxy-5β-cholan-24-oate] | 25 ± 1 | 22 ± 1.5 | > 100 | cytotoxicity against K562 (in words) (K562 leukemia cells; 72 h): active; cytotoxicity against HCT116 (in words) (HCT116 colon carcinoma): active; cytotoxicity towards fibroblast cells (in words) ([1]; 72 h): not active
CC(CCC(=O)NCCS(=O)(=O)O)C1CCC2C3C(O)CC4CC(n5cc(CCCCC#Cc6nc7c(N)ncnc7n6C6OC(CO)C(O)C6O)nn5)CCC4(C)C3CCC12C (centres unmarked) [A-TUDCA] | > 50 | > 50 | > 100 | 
